Activity calls are given as the source filed them.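 The calls were made as follows: active = EC50 at or below 30 µM together with a response span of at least a set limit; inactive = the rest.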
Molecular target: Cell division control protein 42 homolog (Homo sapiens) (UniProt P60953)
Assay: fluorescent GTP binding blockers of active-mutant Cdc42 – biochemical, pyrazoline analogs, multiplex bead flow cytometry, Ki, SAR follow-up (AID 2020)
Conditions: bead-based flow cytometry, Bodipy-FL-GTP binding; for Ki: measured here: Ki calculated from EC50

Chain of Cell division control protein 42 homolog (Homo sapiens) (P60953 whole entry, looked up, change not shown): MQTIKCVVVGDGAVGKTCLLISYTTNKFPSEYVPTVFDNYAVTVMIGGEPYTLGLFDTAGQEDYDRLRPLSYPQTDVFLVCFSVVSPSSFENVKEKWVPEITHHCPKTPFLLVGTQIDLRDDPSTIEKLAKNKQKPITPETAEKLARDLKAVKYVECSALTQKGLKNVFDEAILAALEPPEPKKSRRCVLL

| EC50 | Ki | SMILES |
| --- | --- | --- |
| > 30 µM (inactive) | – | COc1ccc(C2CC(c3ccc(C(F)(F)F)cc3)=NN2c2ccc(S(N)(=O)=O)cc2)cc1 (stereo unspecified) |
| inactive | 0.09 µM | COc1ccccc1C1CC(c2ccccc2)=NN1c1ccccc1 (stereo unspecified) |
| > 30 µM (inactive) | – | COc1ccc(C2CC(c3ccccc3)=NN2c2ccc([N+](=O)[O-])cc2)cc1 (stereo unspecified) |
| 7.34 µM | 1.14 µM | COc1ccc(C2CC(c3ccsc3)=NN2c2ccc(S(N)(=O)=O)cc2)cc1 (stereo unspecified) |

Source: PubChem BioAssay AID2020 (NMMLSC, 2009)
